Measured values published in ChEMBL document CHEMBL1125945, “Tripyl-convergent total synthesis of a homochiral benzoindane-fused prostacyclin analog” (Bioorg Med Chem Lett, 1991).

Species: Homo sapiens
Assay: Compound was tested for inhibitory activity against collagen induced platelet aggregation
Assay type: functional

- IC50: 2500 nM
SMILES: O=C(O)COc1cccc2c1[C@H]1C[C@@H](O)[C@H](C#C[C@@H](O)C3CCCCC3)[C@H]1C2
